{
  "source": "ChEMBL document CHEMBL1138919",
  "about": "“Binding of methoxy-substituted N1-benzenesulfonylindole analogs at human 5-HT6 serotonin receptors” (Bioorg Med Chem Lett, 2006)",
  "target": "5-hydroxytryptamine receptor 6 (Homo sapiens, UniProt P50406)",
  "sequence (P50406 whole entry)": "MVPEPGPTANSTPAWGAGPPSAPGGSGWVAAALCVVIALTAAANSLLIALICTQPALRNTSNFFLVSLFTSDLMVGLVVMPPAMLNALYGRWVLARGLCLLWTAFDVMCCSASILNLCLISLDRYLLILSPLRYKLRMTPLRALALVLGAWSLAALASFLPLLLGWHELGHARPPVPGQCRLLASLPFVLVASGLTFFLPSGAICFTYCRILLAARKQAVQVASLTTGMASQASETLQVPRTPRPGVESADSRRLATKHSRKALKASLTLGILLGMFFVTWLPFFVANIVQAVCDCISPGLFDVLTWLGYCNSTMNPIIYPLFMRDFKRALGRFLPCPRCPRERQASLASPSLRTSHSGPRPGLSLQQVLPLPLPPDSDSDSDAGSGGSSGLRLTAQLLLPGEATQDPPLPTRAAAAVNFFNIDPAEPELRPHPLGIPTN",
  "assay": "Binding affinity to human 5HT6 receptor",
  "data": [
    {"smiles": "COc1ccc2ccn(S(=O)(=O)c3ccc(N)cc3)c2c1", "values": [
      {"measurement": "Ki", "result": 1.8, "unit": "nM"}
    ]},
    {"smiles": "COc1cc(OC)c2ccn(S(=O)(=O)c3ccc(N)cc3)c2c1", "values": [
      {"measurement": "Ki", "result": 0.8, "unit": "nM"}
    ]},
    {"smiles": "CNc1ccc2c3c(n(S(=O)(=O)c4ccc(N)cc4)c2c1)CCCC3", "values": [
      {"measurement": "Ki", "result": 205, "unit": "nM"}
    ]},
    {"smiles": "CNc1cccc2c1c1c(n2S(=O)(=O)c2ccc(N)cc2)CCCC1", "values": [
      {"measurement": "Ki", "result": 165, "unit": "nM"}
    ]},
    {"smiles": "COc1cc(OC)c2c3c(n(S(=O)(=O)c4ccc(N)cc4)c2c1)CCCC3", "values": [
      {"measurement": "Ki", "result": 210, "unit": "nM"}
    ]},
    {"smiles": "COc1cccc2c1ccn2S(=O)(=O)c1ccc(N)cc1", "values": [
      {"measurement": "Ki", "result": 3.3, "unit": "nM"}
    ]}
  ]
}
